We go through four molecules from patent US20060063754A1, “Methods of treating a sleep disorder” (priority 2004, published 2006).

Where two headings read alike, the source gives them in different places.

Usually Ki stands for the equilibrium dissociation constant of an inhibitor or competing ligand from its target.

One data set relates to male Wistar rats. Put plainly: Sleep-wakefulness monitoring (SCORE-2000, EEG/EMG) in rats. Format: in vivo, rat. To be noted: oral bolus at CT-18, male Wistar rats. As for the experimental part:
Sleep-wakefulness, locomotor activity and body temperature are monitored in male Wistar rats treated with a test compound initially at a concentration of 10 mg/kg. Higher and lower doses are assayed for select compounds (e.g., as high as 45 mg/kg, and as low as necessary to establish a no-effect dose). Treatments are administered at CT-18, the peak of the activity dominated period (6 hours after lights-off), and produce soporific (sleep-inducing) effects characterized by increased non-REM sleep time, increased sleep continuity, but without evidence of REM sleep inhibition or rebound insomnia.
Sleep-wakefulness, locomotor activity and body temperature were monitored in vivo with certain of the disclosed sleep-inducing agents (e.g., Compounds 1 and 2) and other compounds described herein. Adult, male Wistar rats (250 g at time of surgery, Charles River Laboratories, Wilmington Mass.) were anesthetized (2% isoflourane in medical grade oxygen) and surgically prepared with a cranial implant to permit chronic electro-encephalogram (EEG) and electromyogram (EMG) recording. Body temperature and locomotor activity were monitored via a miniature transmitter (Mini-Mitter, Bend, Oreg.) surgically placed in the abdomen. The cranial implant consisted of stainless steel screws (two frontal (+3.2 AP from bregma, ±2.0 ML) and two occipital (−6.9 AP, ±5.5 ML)) for EEG recording. Two Teflon®-coated stainless steel wires were positioned under the nuchal trapezoid muscles for EMG recording. All leads were soldered to a miniature connector prior to surgery, and gas sterilized in ethylene oxide. The implant assembly was affixed to the skull with dental acrylic. A minimum of three weeks was allowed for surgical recovery.
Each rat was permanently housed in its own individual recording cage located within separate, ventilated compartments of custom-designed stainless steel cabinets. Each cage was enhanced with a filter-top riser and low-torque swivel-commutator. Food and water were available ad libitum. A 24-hr light-dark cycle (12 hours light, 12 hours dark) was maintained throughout the study. Animals were undisturbed for at least 48 hours before and after treatments.
Sleep and wakefulness were determined using “SCORE-2000™” (Hypnion, Worcester, Mass.)—an internet-based sleep-wake and physiological monitoring system. The system monitored amplified EEG (bandpass 1-30 Hz), integrated EMG (bandpass 10-100 Hz), body temperature and non-specific locomotor activity (LMA) via telemetry, and drinking activity, continuously and simultaneously. Arousal states were classified on-line as non-REM (NREM) sleep, REM sleep, wake, or theta-dominated wake every 10 seconds. Total drinking and locomotor activity counts, and body temperature were quantitated and recorded each minute, using EEG feature extraction and pattern-matching algorithms. […] The classification algorithm used individually-taught EEG-arousal-state templates, plus EMG criteria to differentiate REM sleep from theta-dominated wakefulness, plus behavior-dependent contextual rules (e.g., if the animal was drinking, it is awake). Drinking and locomotor activity intensity (LMA) were recorded every 10 seconds, while body temperature was recorded each minute. Locomotor activity was detected by a telemetry receiver (Mini-Mitter) beneath the cage. Telemetry measures (LMA and body temperature) were not part of the scoring algorithm; thus, sleep-scoring and telemetry data were independent measures.
Compounds were administered at CT-18, the peak of the activity-dominated period, sufficient time was allowed to view the time course of the treatment effect before lights-on (6 hours post-treatment). Compounds were suspended in sterile 0.25% or 0.5% methylcellulose (1-2 ml/kg). Treatments were administered orally as a bolus.
A parallel group study design was employed. […]

A further data set addresses hERG channel (Homo sapiens, UniProt Q12809). Description: hERG channel current block, whole cell patch clamp in HEK293 cells. To be noted: HEK293 cells expressing hERG, room temperature. Format: cell-based. The protocol:
In the hERG assay, hERG channels are expressed in a human embryonic kidney cell line (HEK293) that lacks endogenous IKr. […] (See, Rampe 1997).
In one embodiment of the hERG assay, the positive control (i.e., reference compound) is terfenadine (Sigma, St. Louis Mo.), which has been shown, at a concentration of 60 nM, to block hERG current by approximately 75%. Test compounds are delivered in HEPES-buffered physiological saline (HB-PS)+0.1% dimethyl sulfoxide (DMSO). Each test compound is applied at a concentration of 10 μM to the HEK293 cells expressing hERG (n≧3, where n=the number of cells). Cells are exposed to the test compound for the time necessary to reach steady-state block, but not longer than 10 minutes. The positive control ([…] terfenadine) is applied to two cells (n≧2).
The hERG-exposed cells are then transferred to the recording chamber and superfused with HB-PS solution. The pipette solution for whole cell recordings includes potassium aspartate (130 mM), MgCl2 (5 mM), EGTA (5 mM), ATP (4 mM), and HEPES (10 mM) at a pH adjusted to 7.2 with KOH. Onset and steady state block of hERG current due to the test compound are measured using a pulse pattern with fixed amplitudes (depolarization: +20 mV for 2 seconds; repolarization: −50 mV for 2 seconds), repeated at 10 second intervals, from a holding potential of −80 mV. Peak tail current is measured during the 2 second step to −50 mV. A steady state is maintained for at least 30 seconds before applying the test compound or positive control compound. Peak tail currents are measured until a new steady state is achieved.
The in vitro effects of the disclosed sleep-inducing agents on the hERG (human ether-à-go-go-related gene) channel current (IKr, the rapidly activating, delayed rectifier cardiac potassium current) were determined by ChanTest (Cleveland, Ohio) according to Standard Operating Procedures of ChanTest.
All chemicals used were purchased from Sigma (St. Louis, Mo.) unless otherwise noted and were of ACS reagent grade purity or higher. […]
In general terms: The hERG channel carries a current that helps repolarise heart muscle cells.

Data set [1] addresses T1, human recombinant M1 muscarinic receptor expressed in CHO cells (Homo sapiens, UniProt P11229).
T1 construct: purchased PerkinElmer, Inc., Wellesley, Mass; host or cells: CHO cells
T1 sequence (P11229 1-460): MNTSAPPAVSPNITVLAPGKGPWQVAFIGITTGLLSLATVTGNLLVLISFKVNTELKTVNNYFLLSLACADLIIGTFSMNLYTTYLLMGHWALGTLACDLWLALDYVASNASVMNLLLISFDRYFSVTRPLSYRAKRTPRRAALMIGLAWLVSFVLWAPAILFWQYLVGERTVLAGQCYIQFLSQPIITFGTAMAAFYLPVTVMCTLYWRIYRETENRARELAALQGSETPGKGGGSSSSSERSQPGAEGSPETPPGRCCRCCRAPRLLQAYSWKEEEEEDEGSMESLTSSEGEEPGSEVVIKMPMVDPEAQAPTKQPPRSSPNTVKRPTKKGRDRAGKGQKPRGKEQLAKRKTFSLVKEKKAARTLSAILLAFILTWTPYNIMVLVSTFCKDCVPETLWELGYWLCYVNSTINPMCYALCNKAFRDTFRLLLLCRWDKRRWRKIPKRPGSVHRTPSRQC
As to conditions: reference compounds; read-out: Ki of reference compounds in M1 binding assay; cited from earlier work.

In data set [2] the target is T2, human recombinant M2 muscarinic receptor expressed in CHO cells (Homo sapiens, UniProt P08172).
T2 construct: purchased PerkinElmer, Inc., Wellesley, Mass; host or cells: CHO cells
T2 sequence (P08172 1-466): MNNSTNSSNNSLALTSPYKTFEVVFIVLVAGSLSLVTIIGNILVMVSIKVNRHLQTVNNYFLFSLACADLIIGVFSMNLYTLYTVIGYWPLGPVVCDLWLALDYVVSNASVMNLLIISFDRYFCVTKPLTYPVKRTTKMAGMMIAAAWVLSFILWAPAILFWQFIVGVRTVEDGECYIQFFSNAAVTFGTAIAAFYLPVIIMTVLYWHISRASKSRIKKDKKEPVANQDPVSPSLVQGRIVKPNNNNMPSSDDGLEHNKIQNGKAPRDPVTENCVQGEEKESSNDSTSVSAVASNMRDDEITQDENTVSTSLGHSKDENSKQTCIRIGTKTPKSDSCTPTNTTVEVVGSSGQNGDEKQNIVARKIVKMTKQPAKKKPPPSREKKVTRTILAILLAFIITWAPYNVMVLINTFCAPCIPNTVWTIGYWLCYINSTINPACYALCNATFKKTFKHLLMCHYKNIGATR
Description: M2 muscarinic receptor binding assay.

Another data set has as its target alpha 2 receptor. Put plainly: alpha 2 receptor binding assay. As to conditions: read-out: Ki Alpha2. As for the experimental part: (§1) Binding assays were performed using Compound 1 and 2 in competitive binding assays with known standards for the H1 histamine receptor, and the M1, M2, and M3 muscarinic receptors, alpha 1 and alpha 2 receptors, and D1 and D2 receptors.

For data set [3], the target named is T1, human recombinant M1 muscarinic receptor expressed in CHO cells. Description: M1 muscarinic receptor binding assay ([3H]-scopolamine, N-methyl chloride).
In data set [4] the target is T3, human recombinant M3 muscarinic receptor expressed in CHO cells (Homo sapiens, UniProt P20309).
T3 construct: purchased PerkinElmer, Inc., Wellesley, Mass; host or cells: CHO cells
Put plainly: M3 muscarinic receptor binding assay.

For the next data set, the target named is D2 receptor (Homo sapiens, UniProt P14416). Description: Dopamine D2 binding assay.
In a further data set the target is T4, H1 histamine receptor (Bos taurus, UniProt P30546).
T4 construct: the receptors were obtained from bovine cerebellar membrane tissue; from tissue; host or cells: bovine cerebellar membranes
Description: H1 histamine receptor competitive binding assay ([3H]pyrilamine). More on the design: species or system bovine.

The next data set deals with alpha 1 receptor. Put plainly: alpha 1 receptor binding assay. As to conditions: read-out: Ki Alpha1. The protocol: as §1
For data set [5], the target named is Dopamine, D1 (human recombinant) (Homo sapiens, UniProt P21728). Description: Dopamine D1 binding assay. The protocol:
Dopamine, D1 (human recombinant) binding assay was performed according to published procedures. See, e.g., Jarvie, et al. J. Recept Res., 13(1-4): 573-90 (1993); and Billard, et al. Life Sciences, 35(18): 1885-93 (1984), with modifications

Sequence of hERG channel (Q12809 whole entry): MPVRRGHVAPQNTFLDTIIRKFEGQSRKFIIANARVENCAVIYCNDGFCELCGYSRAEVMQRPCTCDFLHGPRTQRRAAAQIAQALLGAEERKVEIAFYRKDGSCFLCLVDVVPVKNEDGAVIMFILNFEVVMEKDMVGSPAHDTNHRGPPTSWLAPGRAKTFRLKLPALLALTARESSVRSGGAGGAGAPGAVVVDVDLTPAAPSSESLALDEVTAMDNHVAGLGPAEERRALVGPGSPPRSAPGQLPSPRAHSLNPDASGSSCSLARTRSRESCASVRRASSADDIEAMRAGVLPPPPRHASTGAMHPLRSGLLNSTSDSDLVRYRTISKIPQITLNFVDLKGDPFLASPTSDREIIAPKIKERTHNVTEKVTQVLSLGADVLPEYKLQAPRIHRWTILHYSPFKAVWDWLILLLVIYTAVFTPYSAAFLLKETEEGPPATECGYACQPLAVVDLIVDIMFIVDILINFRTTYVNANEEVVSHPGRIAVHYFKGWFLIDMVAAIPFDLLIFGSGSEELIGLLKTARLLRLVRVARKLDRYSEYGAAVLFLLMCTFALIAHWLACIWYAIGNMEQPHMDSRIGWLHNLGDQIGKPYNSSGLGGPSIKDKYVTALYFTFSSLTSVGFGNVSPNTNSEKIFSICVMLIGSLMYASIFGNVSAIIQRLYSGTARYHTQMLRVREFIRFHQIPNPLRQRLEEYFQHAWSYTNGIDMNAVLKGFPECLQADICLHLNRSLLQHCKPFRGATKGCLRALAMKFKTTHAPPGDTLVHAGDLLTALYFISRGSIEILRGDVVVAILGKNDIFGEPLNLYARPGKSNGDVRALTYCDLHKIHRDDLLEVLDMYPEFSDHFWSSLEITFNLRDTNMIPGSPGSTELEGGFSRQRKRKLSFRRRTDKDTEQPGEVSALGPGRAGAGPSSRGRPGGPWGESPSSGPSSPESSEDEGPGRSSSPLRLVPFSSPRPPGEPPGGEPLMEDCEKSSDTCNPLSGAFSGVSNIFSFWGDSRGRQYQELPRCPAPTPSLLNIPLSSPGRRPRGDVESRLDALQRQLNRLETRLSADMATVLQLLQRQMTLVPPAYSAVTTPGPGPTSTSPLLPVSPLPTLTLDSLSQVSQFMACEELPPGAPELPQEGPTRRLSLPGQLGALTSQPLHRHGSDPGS
T4 sequence (P30546 whole entry): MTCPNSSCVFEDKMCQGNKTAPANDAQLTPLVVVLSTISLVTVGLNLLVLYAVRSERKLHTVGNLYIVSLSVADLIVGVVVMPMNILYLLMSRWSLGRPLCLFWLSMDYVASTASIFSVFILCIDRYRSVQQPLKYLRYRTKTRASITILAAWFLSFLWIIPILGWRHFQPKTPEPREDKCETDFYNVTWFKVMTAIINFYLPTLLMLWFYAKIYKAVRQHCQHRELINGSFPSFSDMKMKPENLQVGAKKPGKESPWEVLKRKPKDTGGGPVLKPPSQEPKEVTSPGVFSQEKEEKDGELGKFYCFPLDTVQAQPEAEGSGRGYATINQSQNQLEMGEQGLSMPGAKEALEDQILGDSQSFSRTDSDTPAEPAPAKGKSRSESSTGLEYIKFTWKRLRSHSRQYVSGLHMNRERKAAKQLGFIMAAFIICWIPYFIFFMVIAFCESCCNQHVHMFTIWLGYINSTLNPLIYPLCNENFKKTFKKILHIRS
Sequence of Dopamine, D1 (human recombinant) (P21728 whole entry): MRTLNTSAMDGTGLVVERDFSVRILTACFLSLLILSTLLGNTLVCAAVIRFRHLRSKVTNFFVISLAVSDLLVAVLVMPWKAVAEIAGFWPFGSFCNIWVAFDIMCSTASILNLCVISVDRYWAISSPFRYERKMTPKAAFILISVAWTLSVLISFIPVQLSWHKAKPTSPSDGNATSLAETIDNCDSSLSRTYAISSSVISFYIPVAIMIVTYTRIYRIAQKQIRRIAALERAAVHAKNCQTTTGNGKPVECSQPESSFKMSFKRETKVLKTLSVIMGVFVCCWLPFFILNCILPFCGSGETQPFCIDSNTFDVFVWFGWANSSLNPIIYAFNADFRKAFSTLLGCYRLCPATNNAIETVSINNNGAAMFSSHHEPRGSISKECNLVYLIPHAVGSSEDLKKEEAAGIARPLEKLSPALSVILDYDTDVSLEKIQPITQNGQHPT
Sequence of D2 receptor (P14416 whole entry): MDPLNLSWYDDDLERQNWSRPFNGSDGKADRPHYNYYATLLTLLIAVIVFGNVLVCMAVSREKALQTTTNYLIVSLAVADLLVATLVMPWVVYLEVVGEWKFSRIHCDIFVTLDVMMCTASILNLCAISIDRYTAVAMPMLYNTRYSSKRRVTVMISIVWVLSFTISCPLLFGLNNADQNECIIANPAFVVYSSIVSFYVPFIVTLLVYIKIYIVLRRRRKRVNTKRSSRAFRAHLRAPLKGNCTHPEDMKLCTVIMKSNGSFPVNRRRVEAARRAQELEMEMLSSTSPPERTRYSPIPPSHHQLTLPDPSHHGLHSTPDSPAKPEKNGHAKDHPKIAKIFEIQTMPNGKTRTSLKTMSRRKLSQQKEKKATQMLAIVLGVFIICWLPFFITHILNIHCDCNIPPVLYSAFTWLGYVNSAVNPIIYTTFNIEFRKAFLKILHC
T3 sequence (P20309 whole entry): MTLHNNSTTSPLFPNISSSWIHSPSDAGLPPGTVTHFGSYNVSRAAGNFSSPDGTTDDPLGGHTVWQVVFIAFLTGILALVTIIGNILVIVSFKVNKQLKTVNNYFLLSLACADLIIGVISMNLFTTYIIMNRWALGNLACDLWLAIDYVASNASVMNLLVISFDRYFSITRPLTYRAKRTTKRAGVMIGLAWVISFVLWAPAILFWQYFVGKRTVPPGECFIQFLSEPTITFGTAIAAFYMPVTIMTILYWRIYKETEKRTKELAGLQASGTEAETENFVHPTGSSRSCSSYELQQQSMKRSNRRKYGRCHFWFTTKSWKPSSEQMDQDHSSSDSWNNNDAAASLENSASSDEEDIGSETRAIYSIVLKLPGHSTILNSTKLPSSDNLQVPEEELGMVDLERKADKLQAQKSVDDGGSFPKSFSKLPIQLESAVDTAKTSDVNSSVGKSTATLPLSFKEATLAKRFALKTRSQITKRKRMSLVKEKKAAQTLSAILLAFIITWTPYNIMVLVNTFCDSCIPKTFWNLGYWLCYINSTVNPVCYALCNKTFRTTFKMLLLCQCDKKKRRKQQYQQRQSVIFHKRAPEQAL

Consider `O=C(O)CCN1CCN(C2=Nc3ccccc3Sc3ccccc32)CC1` [Compound 3], for which the “LUSB (longest uninterrupted sleep bout)” value in the data set with male Wistar rats (dose 3 mg/kg) is 6 ± 1.9 min. Besides, in the data set with male Wistar rats (dose 10 mg/kg), the “LUSB (longest uninterrupted sleep bout)” value was 5 ± 2.0 min and the NREM was 43 ± 6 min. On hERG channel, the “hERG at 10 micromolar (% blocking of the hERG channel)” value amounted to 0.80%.
As to `C[N+]1(C)CCC(OC(=O)C(c2ccccc2)c2ccccc2)CC1` [4-DAMP methiodide], the Ki in data set [1] is 0.00027 µM.
For `O=C(O)CCN1CCN(C2=Nc3ccccc3Oc3ccccc32)CC1` [Compound 1], the Ki is over 10 µM in data set [2]; over 10 µM on alpha 2 receptor; over 10 µM in data set [3]; over 10 µM in data set [4]; over 10 µM on D2 receptor; 0.041 µM at H1 histamine receptor. Moreover, the Ki on alpha 1 receptor is over 10 µM; in data set [5], 1.13 µM. The “LUSB (longest uninterrupted sleep bout)” value in the data set on male Wistar rats (dose 10 mg/kg) was determined as 13.2 ± 3.3 min. In addition, in the data set with male Wistar rats (dose 10 mg/kg), the NREM came to 22 ± 6 min. On hERG channel, the “hERG at 10 micromolar (% blocking of the hERG channel)” value was found to be 0.70%.
For the molecule `O=C(O)CCCN1CCN(C2=Nc3ccccc3Oc3ccccc32)CC1` [Compound 2], the Ki in data set [2] was over 10 µM; at alpha 2 receptor, over 10 µM; in data set [3] it was over 10 µM; in data set [4], over 10 µM; at D2 receptor it was over 10 µM; at H1 histamine receptor it was 0.0542 µM. Also, the Ki on alpha 1 receptor is 3.27 µM; in [5] it was 6.24 µM. Also, the figures for the “LUSB (longest uninterrupted sleep bout)” value with male Wistar rats (dose 3 mg/kg) and in the data set on male Wistar rats (dose 10 mg/kg) were 3.8 ± 2.2 min and 7.2 ± 2.0 min, respectively. Besides, the NREM with male Wistar rats (dose 10 mg/kg) came out at 38 ± 6 min. The “hERG at 10 micromolar (% blocking of the hERG channel)” value at hERG channel came to 2.60%.
